# What was measured:
# [1] = target: T1, Avi-KRAS G12V (1-169) GppNHp/RAF1 RBD-3xFLAG (52-151) (Homo sapiens, UniProt P01116, G12V); assay: Raf1-KRAS G12V-GppNHP disruption HTRF assay (Biological Example 1); format: binding; details: KRAS G12V, GppNHp-loaded; Table 11
# T1 construct: Avi-KRAS G12V (1-169)
# How it was run: (§1)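 Compounds were tested for disruption of KRAS–RAF1 RBD binding by HTRF in 50 mM Tris pH 7.5, 100 mM NaCl, 5 mM MgCl2, 0.1% BSA, 0.01% Tween, 10% DMSO. Protein mix was incubated 1 h at room temperature with shaking, then detection reagents added for another 1 h. Activity expressed as percent of DMSO control.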
# [2] = target: T2, Avi-KRAS G12R (1-169) GppNHp/RAF1 RBD-3xFLAG (52-151) (Homo sapiens, UniProt P01116, G12R); assay: Raf1-KRAS G12R-GppNHP disruption HTRF assay (Biological Example 1); format: binding; details: KRAS G12R, GppNHp-loaded; Table 11
# T2 construct: Avi-KRAS G12R (1-169)
# T2 sequence (P01116 1-169 isoform P01116-2 G12R): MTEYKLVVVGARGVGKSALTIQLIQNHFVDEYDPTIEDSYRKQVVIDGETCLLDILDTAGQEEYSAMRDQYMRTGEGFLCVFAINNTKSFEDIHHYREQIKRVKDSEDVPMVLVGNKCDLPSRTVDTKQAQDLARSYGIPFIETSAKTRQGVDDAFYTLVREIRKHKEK
# How it was run: as §1
# GP2d cells (KRAS G12D) = assay: Cell-based pERK HTRF assay in GP2d cell (Biological Example 2); details: GP2d (KRAS G12D) cells, pERK HTRF
# How it was run: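 Phospho-ERK in lysed cells was detected by HTRF using Eu cryptate and d2 antibodies, read between 4 and 24 h at room temperature. Prior to lysis, KRAS G12D GP2d cells, seeded the day before in DMEM with 10% FBS, were exposed to compounds for 60 min. Compounds were tested as 9-point half-log curves from 1 μM or 100 nM top, with 0.25% DMSO.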
# [3] = target: T3, Avi-KRAS WT (1-169) GppNHp/RAF1 RBD-3xFLAG (52-151) (Homo sapiens, UniProt P01116); assay: Raf1-KRAS WT-GppNHP disruption HTRF assay (Biological Example 1); format: binding; details: KRAS WT, GppNHp-loaded; Table 11
# T3 construct: Avi-KRAS WT (1-169)
# T3 sequence (P01116 1-169 isoform P01116-2): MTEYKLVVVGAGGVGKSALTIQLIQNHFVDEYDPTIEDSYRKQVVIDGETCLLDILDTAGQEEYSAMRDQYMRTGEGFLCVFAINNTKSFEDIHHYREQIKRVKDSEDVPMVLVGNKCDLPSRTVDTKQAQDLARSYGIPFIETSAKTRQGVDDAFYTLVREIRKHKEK
# How it was run: as §1
# [4] = target: T4, Avi-KRAS G12D (1-169) GppNHp/RAF1 RBD-3xFLAG (52-151) (Homo sapiens, UniProt P01116, G12D); assay: Raf1-KRAS G12D-GppNHP disruption HTRF assay (Biological Example 1); format: binding; details: KRAS G12D, GppNHp-loaded; Table 11
# T4 construct: Avi-KRAS G12D (1-169)
# T4 sequence (P01116 1-169 isoform P01116-2 G12D): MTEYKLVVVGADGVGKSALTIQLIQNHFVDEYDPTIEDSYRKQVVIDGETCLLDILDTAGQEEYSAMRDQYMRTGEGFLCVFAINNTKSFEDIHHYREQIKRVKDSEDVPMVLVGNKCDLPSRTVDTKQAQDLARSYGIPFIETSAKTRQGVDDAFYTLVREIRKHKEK
# How it was run: as §1
# T1 sequence (P01116 1-169 isoform P01116-2 G12V): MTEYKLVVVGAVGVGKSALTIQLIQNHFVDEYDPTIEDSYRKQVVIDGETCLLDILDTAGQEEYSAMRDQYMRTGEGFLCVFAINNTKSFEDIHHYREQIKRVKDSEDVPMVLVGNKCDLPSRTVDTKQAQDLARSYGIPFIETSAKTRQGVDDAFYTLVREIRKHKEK
IC50 [1] [nM],IC50 [2] [nM],IC50 (GP2d cells (KRAS G12D); GP2d) [nM],IC50 [3] [nM],IC50 [4] [nM],IC50 (GP2d cells (KRAS G12D)) [nM],Structure (SMILES)
100 to 1000,100 to 1000,< 100,100 to 1000,< 100,–,"CN(CCO)c1nc(OC[C@@]23CCCN2C[C@H](F)C3)nc2c(F)c(-c3ccc(F)c4sc(N)c(C#N)c34)c(C(F)(F)F)cc12 [Compound 70, 2-amino-7-fluoro-4-(8-fluoro-2-(((2R,7aS)-2-fluorotetrahydro-1H-pyrrolizin-7a(5H)-yl)methoxy)-4-((2-hydroxyethyl)(methyl)amino)-6-(trifluoromethyl)quinazolin-7-yl)benzo[b]thiophene-3-carbonitrile]"
100 to 1000,100 to 1000,< 100,100 to 1000,100 to 1000,–,N#Cc1c(N)sc2c(F)ccc(-c3c(C(F)(F)F)cc4c(N5CC[C@@H](O)C5)nc(OC[C@@]56CCCN5C[C@H](F)C6)nc4c3F)c12 [Compound 126]
1000 to 10000,1000 to 10000,100 to 1000,1000 to 10000,100 to 1000,–,CN(CCO)c1nc(OC[C@@]23CCCN2C[C@H](F)C3)nc2c(F)c(-c3ccc(F)c4sc(N)nc34)c(C(F)(F)F)cc12 [Compound 82]
100 to 1000,100 to 1000,< 100,100 to 1000,100 to 1000,–,CO[C@@H]1C[C@@H](COc2nc(N(C)C3CC(O)C3)c3cc(C(F)(F)F)c(-c4ccc(F)c5sc(N)c(C#N)c45)c(F)c3n2)N(C)C1 (stereo partly shown) [Compound 40]
100 to 1000,100 to 1000,< 100,100 to 1000,100 to 1000,–,CN(c1nc(OC[C@@]23CCCN2C[C@H](F)C3)nc2c(F)c(-c3ccc(F)c4sc(N)c(C#N)c34)c(C(F)(F)F)cc12)C1CCC(O)CC1 (stereo partly shown) [Compound 65]
1000 to 10000,100 to 1000,< 100,100 to 1000,100 to 1000,–,N#Cc1c(N)sc2c(F)ccc(-c3c(C(F)(F)F)cc4c(N5CCC(F)(F)CC5)nc(OC[C@@]56CCCN5C[C@H](F)C6)nc4c3F)c12 [Compound 150]
100 to 1000,100 to 1000,< 100,100 to 1000,100 to 1000,–,CN(c1nc(OC[C@@]23CCCN2C[C@H](F)C3)nc2c(F)c(-c3ccc(F)c4sc(N)c(C#N)c34)c(C(F)(F)F)cc12)C1(CO)CC1 [Compound 170]
100 to 1000,100 to 1000,< 100,100 to 1000,< 100,–,CCN(CC)c1nc(OC[C@@]23CCCN2C[C@H](F)C3)nc2c(F)c(-c3ccc(F)c4sc(N)c(C#N)c34)c(C(F)(F)F)cc12 [Compound 152]
> 10000,> 10000,> 1000,> 10000,> 10000,–,CN(c1nc(OC[C@@]23CCCN2C[C@H](F)C3)nc2c(F)c(-c3ccc(F)c4scc(C#N)c34)c(C(F)(F)F)cc12)[C@@H]1CCN(C(=O)CO)C1 [Compound 107]
100 to 1000,100 to 1000,–,100 to 1000,100 to 1000,100 to 1000,CN(c1nc(OC[C@@]23CCCN2C[C@H](F)C3)nc2c(F)c(-c3ccc(F)c4sc(N)c(C#N)c34)c(C(F)(F)F)cc12)C1CCC(O)CC1 (stereo partly shown) [Compound 66]
> 10000,> 10000,–,> 10000,> 10000,> 1000,"CCN(C)c1nc(OC[C@@]23CCCN2C[C@H](F)C3)nc2c(F)c(-c3ccc(F)c4sc(N)c(C#N)c34)c(C(F)(F)F)cc12 (single isomer, unassigned) [Compound 197]"
100 to 1000,100 to 1000,< 100,100 to 1000,100 to 1000,–,CN(c1nc(OC[C@@]23CCCN2C[C@H](F)C3)nc2c(F)c(-c3ccc(F)c4sc(N)c(C#N)c34)c(C(F)(F)F)cc12)C1CCC1 [Compound 22]
100 to 1000,100 to 1000,< 100,< 100,< 100,–,N#Cc1c(N)sc2c(F)ccc(-c3c(C(F)(F)F)cc4c(N5CC[C@@H]5CO)nc(OC[C@@]56CCCN5C[C@H](F)C6)nc4c3F)c12 [Compound 168]
1000 to 10000,100 to 1000,< 100,100 to 1000,100 to 1000,–,N#CC[C@H]1CN(c2nc(OC[C@@]34CCCN3C[C@H](F)C4)nc3c(F)c(-c4ccc(F)c5sc(N)c(C#N)c45)c(C(F)(F)F)cc23)CCO1 [Compound 137]
1000 to 10000,1000 to 10000,< 100,100 to 1000,100 to 1000,–,N#Cc1c(N)sc2c(F)ccc(-c3c(C(F)(F)F)cc4c(N5CC6(COC6)C5)nc(OC[C@@]56CCCN5C[C@H](F)C6)nc4c3F)c12 [Compound 149]
100 to 1000,100 to 1000,< 100,100 to 1000,< 100,–,CN(C[C@@H](O)CO)c1nc(OC[C@@]23CCCN2C[C@H](F)C3)nc2c(F)c(-c3ccc(F)c4sc(N)c(C#N)c34)c(C(F)(F)F)cc12 [Compound 78]
100 to 1000,100 to 1000,100 to 1000,100 to 1000,100 to 1000,–,N#Cc1c(N)sc2c(F)ccc(-c3c(C(F)(F)F)cc4c(N5CCN(CCO)C(=O)C5)nc(OC[C@@]56CCCN5C[C@H](F)C6)nc4c3F)c12 [Compound 121]
100 to 1000,100 to 1000,< 100,100 to 1000,100 to 1000,–,CCN(c1nc(OC[C@@]23CCCN2C[C@H](F)C3)nc2c(F)c(-c3ccc(F)c4sc(N)c(C#N)c34)c(C(F)(F)F)cc12)C(C)C [Compound 154]
100 to 1000,100 to 1000,< 100,< 100,< 100,–,"CN(c1nc(OC[C@@]23CCCN2C[C@H](F)C3)nc2c(F)c(-c3ccc(F)c4sc(N)c(C#N)c34)c(C(F)(F)F)cc12)[C@H]1C[C@@H](O)C1 [Compound 18, 2-amino-7-fluoro-4-(8-fluoro-2-(((2R,7aS)-2-fluorotetrahydro-1H-pyrrolizin-7a(5H)-yl)methoxy)-4-(((1s,3R)-3-hydroxycyclobutyl)(methyl)amino)-6-(trifluoromethyl)quinazolin-7-yl)benzo[b]thiophene-3-carbonitrile]"
1000 to 10000,1000 to 10000,100 to 1000,100 to 1000,100 to 1000,–,C[C@@H]1CN(c2nc(OC[C@@]34CCCN3C[C@H](F)C4)nc3c(F)c(-c4ccc(F)c5sc(N)c(C#N)c45)c(C(F)(F)F)cc23)C[C@H](C)O1 [Compound 143]
1000 to 10000,1000 to 10000,100 to 1000,1000 to 10000,1000 to 10000,–,"CN(c1nc(OC[C@@]23CCCN2C[C@H](F)C3)nc2c(F)c(-c3ccc(F)c4sc(N)c(C#N)c34)c(C(F)(F)F)cc12)[C@H]1C[C@@H](O)C1 (single isomer, unassigned) [Compound 20]"
100 to 1000,100 to 1000,< 100,100 to 1000,< 100,–,"CCN(c1nc(OC[C@@]23CCCN2C[C@H](F)C3)nc2c(F)c(-c3ccc(F)c4sc(N)c(C#N)c34)c(C(F)(F)F)cc12)[C@H]1C[C@@H](O)C1 [Compound 26, 2-amino-4-[4-[ethyl-(3-hydroxycyclobutyl)amino]-8-fluoro-2-[[(2R,8S)-2-fluoro-1,2,3,5,6,7-hexahydropyrrolizin-8-yl]methoxy]-6-(trifluoromethyl)quinazolin-7-yl]-7-fluoro-benzothiophene-3-carbonitrile]"
100 to 1000,100 to 1000,100 to 1000,100 to 1000,100 to 1000,–,N#Cc1c(N)sc2c(F)ccc(-c3c(C(F)(F)F)cc4c(N5CC[C@@H](CO)C5)nc(OC[C@@]56CCCN5C[C@H](F)C6)nc4c3F)c12 [Compound 124]
100 to 1000,100 to 1000,< 100,100 to 1000,100 to 1000,–,CCN(CCCO)c1nc(OC[C@@]23CCCN2C[C@H](F)C3)nc2c(F)c(-c3ccc(F)c4sc(N)c(C#N)c34)c(C(F)(F)F)cc12 [Compound 175]
100 to 1000,100 to 1000,< 100,100 to 1000,< 100,–,C[C@@H](O)C1CCN(c2nc(OC[C@@]34CCCN3C[C@H](F)C4)nc3c(F)c(-c4ccc(F)c5sc(N)c(C#N)c45)c(C(F)(F)F)cc23)CC1 [Compound 49]
100 to 1000,100 to 1000,< 100,100 to 1000,100 to 1000,–,CCC(=O)N1CC[C@@H](N(C)c2nc(OC[C@@]34CCCN3C[C@H](F)C4)nc3c(F)c(-c4ccc(F)c5sc(N)c(C#N)c45)c(C(F)(F)F)cc23)[C@H]1C [Compound 116]

# Source: patent US20260042764A1, “COMPOSITIONS AND METHODS FOR INHIBITION OF KRAS” (TheRas, Inc., priority 2022, published 2026)
